In test [1] the test system is IL-6 in human monocyte cell line (THP-1 cells). The experiment in a line: IL-6 inhibition in LPS-stimulated THP-1 cells (HTRF). Conditions: IL-6 in LPS-stimulated THP-1 cells; for EC50: HTRF; for inhibition at 10 µM: read-out: percent inhibition in brackets beside EC50 >10 μM. It counts as cell-based. In short, it runs like this:
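Readout is the 665/620 nm HTRF ratio for secreted IL-6, normalized to DMSO wells, with EC50 from a variable-slope four-parameter fit, or % inhibition at 10 μM when above 10 μM. Cells (1% FBS, 24 h beforehand) got compound for 2 h, then LPS 500 ng/mL for 22 h at 37° C; top dose 10 μM, 0.1% DMSO.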
A general note: In TR-FRET formats the signal depends on donor and acceptor labels being close together.

The test system of test [2] is Primary human fibroblasts derived from IPF patients (LL29 cells) treated with TGF-β1. The experiment in a line: Inhibition of the fibrotic process: αSMA staining in TGF-β1 treated fibroblasts. The class given is cell-based. The note with it: Fibroblast, 96 h, LL29 fibroblasts treated with TGF-β1, 4 days; for inhibition at 10 µM: read-out: percent inhibition in brackets beside EC50 >10 μM. The procedure, abridged: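 Read-out: fraction of αSMA-positive cells by high-content imaging, SYTOX-stained dead cells excluded, normalized to TGF-β1/DMSO wells. Cells got compound (10 μM–[…], 11 points) plus TGF-β1 20 ng/mL for 4 days. EC50 from triplicate curves; above 10 μM, % inhibition at 10 μM given.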

SMILES strings stand for the structures.

As usually defined, the EC50 is the concentration at which the effect is half-maximal. As a reminder, the inhibition is how much of the control response was suppressed. For `CCCC(=O)Nc1cncc(-c2ccc3[nH]nc(-c4nc5c(-c6ccsc6)nccc5[nH]4)c3n2)c1` [Compound 297, N-(5-(3-(4-(Thiophen-3-yl)-1H-imidazo[4,5-c]pyridin-2-yl)-1H-pyrazolo [4,3-b]pyridin-5-yl)pyridin-3-yl)butyramide], the half-maximal effective concentration (EC50) in test [1] was 3.67 µM; in test [2], above 10 µM. Also, the inhibition at 10 µM in test [2] turned out to be 16.1%.

As for `c1ccc(CNCc2cncc(-c3ccc4[nH]nc(-c5nc6c(-c7ccsc7)nccc6[nH]5)c4n3)c2)cc1` [Compound 304, N-Benzyl-1-(5-(3-(4-(thiophen-3-yl)-1H-imidazo[4,5-c]pyridin-2-yl)-1H-pyrazolo [4,3-b]pyridin-5-yl)pyridin-3-yl)methanamine], in test [1], the EC50 is above 10 µM and the inhibition at 10 µM was 0%. Further, the EC50 in test [2] was 6.56 µM.

In the case of `FC1(F)CCN(Cc2cncc(-c3ccc4[nH]nc(-c5nc6c(-c7ccsc7)nccc6[nH]5)c4n3)c2)C1` [Compound 306, 5-(5-((3,3-difluoropyrrolidin-1-yl)methyl)pyridin-3-yl)-3-(4-(thiophen-3-yl)-1H-imidazo[4,5-c]pyridin-2-yl)-1H-pyrazolo[4,3-b]pyridine], the EC50 in test [1] is 3.66 µM; in test [2], 1.24 µM.

For `CCNCc1cncc(-c2ccc3[nH]nc(-c4nc5c(-c6ccoc6)nccc5[nH]4)c3n2)c1` [Compound 314, N-((5-(3-(4-(Furan-3-yl)-1H-imidazo[4,5-c]pyridin-2-yl)-1H-pyrazolo[4,3-b]pyridin-5-yl)pyridin-3-yl)methyl)ethanamine], in test [1], the EC50 is above 10 µM and the inhibition at 10 µM was 36%. Besides, in test [2], the EC50 was above 10 µM and the inhibition at 10 µM was 20.6%.

For the compound `CC(C)Nc1cncc(-c2ccc3[nH]nc(-c4nc5c(-c6ccoc6)nccc5[nH]4)c3n2)c1` [Compound 320, 5-(3-(4-(Furan-3-yl)-1H-imidazo[4,5-c]pyridin-2-yl)-1H-pyrazolo[4,3-b]pyridin-5-yl)-N-isopropylpyridin-3-amine], the EC50 in test [1] is 0.482 µM; in test [2], 0.17 µM.

On to `CCCCC(=O)Nc1cncc(-c2ccc3[nH]nc(-c4nc5c(-c6ccoc6)nccc5[nH]4)c3n2)c1` [Compound 327, N-(5-(3-(4-(Furan-3-yl)-1H-imidazo[4,5-c]pyridin-2-yl)-1H-pyrazolo[4,3-b]pyridin-5-yl)pyridin-3-yl)pentanamide], for which, in test [1], the EC50 is above 10 µM and the inhibition at 10 µM stood at 22.5%. Also, in test [2], the EC50 is above 10 µM and the inhibition at 10 µM was determined as 0%.

For the compound `c1cc2[nH]c(-c3n[nH]c4ccc(-c5cncc(CNCC6CCCC6)c5)nc34)nc2c(-c2ccoc2)n1` [Compound 333, 1-Cyclopentyl-N-((5-(3-(4-(furan-3-yl)-1H-imidazo[4,5-c]pyridin-2-yl)-1H-pyrazolo [4,3-b]pyridin-5-yl)pyridin-3-yl)methyl)methanamine], in test [1], the EC50 is above 10 µM and the inhibition at 10 µM is 32.3%. For the same compound, in test [2], the EC50 was above 10 µM and the inhibition at 10 µM came to 46.9%.

Regarding `CCC(=O)Nc1cncc(-c2ccc3[nH]nc(-c4nc5c(-c6cccs6)nccc5[nH]4)c3n2)c1` [Compound 337, N-(5-(3-(4-(Thiophen-2-yl)-1H-imidazo[4,5-c]pyridin-2-yl)-1H-pyrazolo [4,3-b]pyridin-5-yl)pyridin-3-yl)propionamide], in test [1], the EC50 is above 10 µM and the inhibition at 10 µM is 0%. This compound registered an EC50 in test [2] of 1.08 µM.

For the compound `CN1CCN(c2nccc3[nH]c(-c4n[nH]c5ccc(-c6cnccn6)nc45)nc23)CC1` [Compound 648, 3-(4-(4-Methylpiperazin-1-yl)-1H-imidazo[4,5-c]pyridin-2-yl)-5-(pyrazin-2-yl)-1H-pyrazolo[4,3-b]pyridine], the results for the EC50 in test [1] and in test [2] were 0.998 µM and 6.47 µM, respectively.

As for `c1cc2[nH]c(-c3n[nH]c4ccc(-c5cn[nH]c5)nc34)nc2cn1` [Compound 651, 3-(1H-Imidazo[4,5-c]pyridin-2-yl)-5-(1H-pyrazol-4-yl)-1H-pyrazolo[4,3-b]pyridine], the EC50 in test [1] and in test [2] was above 10 µM in each case. The inhibition at 10 µM in test [1] was 0%; in test [2] it was 16.4%.

As to `c1cc2[nH]c(-c3n[nH]c4ccc(-c5cncc(OC6CCNCC6)c5)nc34)nc2cn1` [Compound 656, 3-(1H-Imidazo[4,5-c]pyridin-2-yl)-5-(5-(piperidin-4-yloxy)pyridin-3-yl)-1H-pyrazolo[4,3-b]pyridine], in test [1], the EC50 is above 10 µM and the inhibition at 10 µM was 41.3%. Moreover, the EC50 in test [2] is 3.33 µM.

Take `Oc1cncc(-c2ccc3[nH]nc(-c4nc5cnccc5[nH]4)c3n2)c1` [Compound 661, 5-(3-(1H-Imidazo[4,5-c]pyridin-2-yl)-1H-pyrazolo[4,3-b]pyridin-5-yl) pyridin-3-ol]: in test [1], the EC50 is above 10 µM and the inhibition at 10 µM amounted to 31.3%. Further, in test [2], the EC50 was above 10 µM and the inhibition at 10 µM was 0%.

Take `O=C(CC1CCNCC1)Nc1cncc(-c2ccc3[nH]nc(-c4nc5c(-c6ccsc6)nccc5[nH]4)c3n2)c1` [Compound 673, 2-(Piperidin-4-yl)-N-(5-(3-(4-(thiophen-3-yl)-1H-imidazo[4,5-c]pyridin-2-yl)-1H-pyrazolo[4,3-b]pyridin-5-yl)pyridin-3-yl)acetamide]: in test [1], the EC50 was above 10 µM and the inhibition at 10 µM was determined as 40.5%. In test [2], the EC50 was 1.07 µM.

For the compound `Cc1ncc(-c2ccc3[nH]nc(-c4nc5c(-c6ccoc6)nccc5[nH]4)c3n2)n1C` [Compound 685, 5-(1,2-Dimethyl-1H-imidazol-5-yl)-3-(4-(furan-3-yl)-1H-imidazo[4,5-c]pyridin-2-yl)-1H-pyrazolo[4,3-b]pyridine], the values for the EC50 in test [1] and in test [2] were above 10 µM and 5.3 µM, respectively. Besides, the inhibition at 10 µM in test [1] was 30.2%.

Regarding `c1cc2[nH]c(-c3n[nH]c4ccc(-c5cncc(OCCN6CCCC6)c5)nc34)nc2c(-c2ccoc2)n1` [Compound 690, 3-(4-(Furan-3-yl)-1H-imidazo[4,5-c]pyridin-2-yl)-5-(5-(2-(pyrrolidin-1-yl)ethoxy)pyridin-3-yl)-1H-pyrazolo[4,3-b]pyridine], the EC50 is 1.46 µM in test [1] and above 10 µM in test [2]. For the same compound, the inhibition at 10 µM in test [2] worked out at 42.6%.

In the case of `COc1cncc(-c2ccc3[nH]nc(-c4nc5c(-c6ccoc6)nccc5[nH]4)c3n2)c1` [Compound 692, 3-(4-(Furan-3-yl)-1H-imidazo[4,5-c]pyridin-2-yl)-5-(5-methoxypyridin-3-yl)-1H-pyrazolo[4,3-b]pyridine], the EC50 in test [1] is above 10 µM; in test [2] it was 0.334 µM. The inhibition at 10 µM in test [1] was determined as 44%.

For `Cn1cc(-c2ccc3[nH]nc(-c4nc5c(-c6cccs6)nccc5[nH]4)c3n2)cn1` [Compound 700, 5-(1-Methyl-1H-pyrazol-4-yl)-3-(4-(thiophen-2-yl)-1H-imidazo[4,5-c]pyridin-2-yl)-1H-pyrazolo[4,3-b]pyridine], the figures for the EC50 in test [1] and in test [2] were above 10 µM and 0.224 µM, respectively. The inhibition at 10 µM in test [1] was determined as 0%.

For `Cc1ccc(-c2nccc3[nH]c(-c4n[nH]c5ccc(C6=CCNCC6)nc45)nc23)s1` [Compound 730, 3-(4-(5-Methylthiophen-2-yl)-1H-imidazo[4,5-c]pyridin-2-yl)-5-(1,2,3,6-tetrahydropyridin-4-yl)-1H-pyrazolo[4,3-b]pyridine], in test [1], the EC50 is above 10 µM and the inhibition at 10 µM is 29.5%. In addition, the midpoint of the response in test [2], the EC50, lay at 6.17 µM.

On to `Cc1ccc(-c2nccc3[nH]c(-c4n[nH]c5ccc(-c6cncc(OC7CCCCC7)c6)nc45)nc23)s1` [Compound 735, 5-(5-(Cyclohexyloxy)pyridin-3-yl)-3-(4-(5-methylthiophen-2-yl)-1H-imidazo[4,5-c]pyridin-2-yl)-1H-pyrazolo[4,3-b]pyridine], for which the EC50 is above 10 µM in test [1] and 0.958 µM in test [2]. Besides, in test [1], the inhibition at 10 µM was determined as 18.8%.

Turning to `Cn1cc(-c2ccc3[nH]nc(-c4nc5c(-c6cc(F)cc(CNS(C)(=O)=O)c6)nccc5[nH]4)c3n2)cn1` [Compound 764, N-(3-Fluoro-5-(2-(5-(1-methyl-1H-pyrazol-4-yl)-1H-pyrazolo [4,3-b]pyridin-3-yl)-1H-imidazo[4,5-c]pyridin-4-yl)benzyl)methanesulfonamide], in test [1], the EC50 is above 10 µM and the inhibition at 10 µM turned out to be 0%. Further, the EC50 in test [2] is 1.06 µM.

For `CS(=O)(=O)NCc1cc(F)cc(-c2nccc3[nH]c(-c4n[nH]c5ccc(-c6cncc(NC(=O)CC7CCNCC7)c6)nc45)nc23)c1` [Compound 769, N-(5-(3-(4-(3-Fluoro-5-(methylsulfonamidomethyl)phenyl)-1H-imidazo[4,5-c]pyridin-2-yl)-1H-pyrazolo[4,3-b]pyridin-5-yl)pyridin-3-yl)-2-(piperidin-4-yl)acetamide], in test [1], the EC50 was above 10 µM and the inhibition at 10 µM was 33.4%. Besides, in test [2], the EC50 worked out at 5.05 µM.

In turn, `CN(C)CCNc1cc(F)cc(-c2nccc3[nH]c(-c4n[nH]c5ccc(-c6cncc(OCCN7CCCC7)c6)nc45)nc23)c1` [Compound 786, N^1-(3-Fluoro-5-(2-(5-(5-(2-(pyrrolidin-1-yl)ethoxy)pyridin-3-yl)-1H-pyrazolo[4,3-b]pyridin-3-yl)-1H-imidazo[4,5-c]pyridin-4-yl)-5phenyl)-N^2,N^2-dimethylethane-1,2-diamine] had an EC50 in test [1] of 7.22 µM. For the same compound, in test [2], the EC50 is above 10 µM and the inhibition at 10 µM was determined as 0%.

The record behind these values is patent publication US10195185B2, “3-(1H-imidazo[4,5-C]pyridin-2-yl)-1H-pyrazolo[4,3-B]pyridines and therapeutic uses thereof” (Samumed, LLC, priority 2015, dated 2019).
